Legend:
U87-MG cells = experiment: Regulatory volume increase after osmotic shrinkage, Coulter counter; format: cell-based, human; conditions: 80 nM PcTX1; 450 mOsM/kg
Protocol: U87-MG cells were mechanically dispersed, washed, and resuspended in PBS. At t=2-3 min, the osmolality of the bathing medium was increased to 450 mOsM/kg by the addition of NaCl from a 3M stock solution.

ASIC1 [1] = target: T1, ASIC1 (Homo sapiens, UniProt P78348); experiment: Acid-activated currents in voltage-clamped Xenopus oocytes expressing ASIC1; format: cell-based; conditions: 400 μM amiloride; pHo 4.0; −60 mV
T1 sequence (P78348 1-528): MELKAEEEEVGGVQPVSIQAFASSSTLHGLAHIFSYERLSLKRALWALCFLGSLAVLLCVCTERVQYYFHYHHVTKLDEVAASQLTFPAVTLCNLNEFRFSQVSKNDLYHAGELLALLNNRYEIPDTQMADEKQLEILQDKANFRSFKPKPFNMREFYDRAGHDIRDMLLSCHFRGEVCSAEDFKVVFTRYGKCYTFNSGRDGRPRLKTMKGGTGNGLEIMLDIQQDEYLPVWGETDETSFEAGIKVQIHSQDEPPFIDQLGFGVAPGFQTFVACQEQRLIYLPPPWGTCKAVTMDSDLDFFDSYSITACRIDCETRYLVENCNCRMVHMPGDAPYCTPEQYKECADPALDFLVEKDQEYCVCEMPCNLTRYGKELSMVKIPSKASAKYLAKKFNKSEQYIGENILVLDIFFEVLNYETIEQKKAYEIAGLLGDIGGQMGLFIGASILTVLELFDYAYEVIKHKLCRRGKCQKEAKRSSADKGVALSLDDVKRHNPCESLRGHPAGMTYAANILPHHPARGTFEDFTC
Description: FIGS. 8A-C show acid-activated ASIC currents in Xenopus oocytes. ASIC 2 (FIG. 8A), ASIC1 (FIG. 8B) and the combination of ASIC2 and ASIC1 (FIG. 8C) were examined. […] Each oocyte served as its own control.
(§1) Membrane potential was held at −60 mV, and the pHo was step decreased to 4.0 for 10 s, and then returned to 7.4 for 30 s before repeating the sequence.
Xenopus oocytes were used to express ASIC1 and ASIC2 mRNA individually and in combination. Oocyte preparation, cRNA injection, and two-electrode voltage clamp recordings were performed as described (33,67-69).
as §1

Na^+/H^+ exchange = conditions: glial / glioma cells; references 72, 73; cited from earlier work
ASIC1 [2] = target: T1, ASIC1; experiment: Wild-type ASIC1 in planar lipid bilayers, single channel recording; format: biochemical; conditions: amiloride; bilayers
Protocol: An expanded time scale is shown below each trace.
Wild-type ASIC1 incorporated into planar lipid bilayers at neutral pH or at acidic extracellular pH was also examined.
as §1
Control single channel were record for ASIC1 containing channels in bilayers bathed with symmetrical 100 mM NaCl, 10 mM MOPS, pH 6.2. Holding potential was +100 mV referred to the virtually grounded trans chamber. For illustration purposes, data shown were digitally filtered at 100 Hz using pCLAMP software (Axon Instruments) subsequent to acquisition of the analog signal filtered at 300 Hz with an 8-pole Bessel filter before acquisition at 1 ms per point. An expanded time scale is shown below each trace (FIG. 21).
Representative dwell-time histograms were constructed following the events analyses performed using pCLAMP software (Axon Instruments) on single channel recordings of 10 min in duration filtered at 300 Hz with an 8-pole Bessel filter before acquisition at 1 ms per point using pCLAMP software and hardware. The event detection thresholds were 50% in amplitude of transition between closed and open states, and 3 ms in duration. Closed and open time constants shown were determined by fitting the closed and open time histograms to the probability density function (Sigworth and Sine, 1987), and using the Simplex least square routine of pSTAT. Number of bins per decade in all histograms was 16.

Psalmotoxin 1 [PcTX1]
volume recovery after shrinkage (U87-MG cells): effectively prevented

N=C(N)NC(=O)c1nc(Cl)c(N)nc1N [amiloride]
inhibition of acid-activated currents (ASIC1 [1]): inhibited | inhibition of Na^+/H^+ exchange (Na^+/H^+ exchange): can inhibit | kind of channel block (ASIC1 [2]): flickery-block

Source: patent publication US20070092444A1, “Inhibition of inward sodium currents in cancer” (priority 2003, published 2007)
